Test results from US5188642A, “Glyphosate-resistant plants” (priority 1990, dated 1993).

Test system: infected potato stem explants
Test: Kanamycin selection of potato stem explants
Type: cell-based, potato (Russet Burbank)
Conditions: Kanamycin at 300 mg/l
Description: Potato--Shoot tips of virus-free Russet Burbank are subcultured on media containing MS major and minor salts, 0.17 g/l sodium dihygrogen phosphate, 0.4 mg/l thiamine hydrochloride, 0.1 g/l inositol, 3% sucrose, 1.5 g/l Gelrite™ (Kelco, Co ) at pH 5.6. Cultures are grown at 24C in a 16 hour photoperiod. Shoots are used approximately 3-4 weeks after subculturing. Stem internodes are cut into approximately 8 mm lengths and split lengthwise, then the cut surface is smeared with Agrobacterium carrying binary vector pMON542 and helper plasmid pTiT37-SE which had been streaked on an LB agar plate and grown for a few days. Stem sections are placed cut side down on the surface of the medium containing MS salts, MS organics, 3% sucrose, 2.25 mg/l BA, […] NAA, 10 mg/l GA, 1.5 g/l Gelrite at pH 5.6. After 4 days, the stem explants are transferred to the same medium but with carbenicillin at 500 mg/l and kanamycin as the selective agent at 0 or 300 mg/l. Two weeks after inoculation, the explants are moved onto medium of the same composition but without NAA.

NC[C@H]1O[C@H](O[C@H]2[C@H](O)[C@@H](O[C@H]3O[C@H](CO)[C@@H](O)[C@H](N)[C@H]3O)[C@H](N)C[C@@H]2N)[C@H](O)[C@@H](O)[C@@H]1O [Kanamycin, kanamycin]
swelling and callusing of explants: sufficient to prevent swelling and callusing of the infected explants without killing the tissue
